Each block holds one molecule with its values, some of them ahead of it.
Columns and labels:
[1] = target: T1, MCT13 (SLC16A13), untagged, co-expressed with CD147 (Homo sapiens, UniProt Q7RTY0); test: inhibition of cephradine uptake in transfected HEK293T cells, LC-MS/MS; type: cell-based; settings: HEK-293T; read-out: % inhibition at 10 mM
T1 construct: untagged full-length MCT13, transiently co-transfected with CD147 in HEK293T cells; with Basigin
T1 sequence (Q7RTY0 1-426): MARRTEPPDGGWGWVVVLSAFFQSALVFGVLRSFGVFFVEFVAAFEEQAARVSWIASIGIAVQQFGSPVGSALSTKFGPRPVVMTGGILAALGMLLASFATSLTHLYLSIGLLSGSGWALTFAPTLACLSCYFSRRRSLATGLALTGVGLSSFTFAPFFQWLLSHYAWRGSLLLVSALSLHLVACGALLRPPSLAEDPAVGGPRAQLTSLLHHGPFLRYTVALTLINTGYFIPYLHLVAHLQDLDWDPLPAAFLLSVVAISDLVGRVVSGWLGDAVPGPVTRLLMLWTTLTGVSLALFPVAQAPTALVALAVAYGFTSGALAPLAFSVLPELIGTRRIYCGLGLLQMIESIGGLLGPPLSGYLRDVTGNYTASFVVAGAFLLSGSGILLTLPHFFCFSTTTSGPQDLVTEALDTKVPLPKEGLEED
T1 sequence (P35613 22-385 partner): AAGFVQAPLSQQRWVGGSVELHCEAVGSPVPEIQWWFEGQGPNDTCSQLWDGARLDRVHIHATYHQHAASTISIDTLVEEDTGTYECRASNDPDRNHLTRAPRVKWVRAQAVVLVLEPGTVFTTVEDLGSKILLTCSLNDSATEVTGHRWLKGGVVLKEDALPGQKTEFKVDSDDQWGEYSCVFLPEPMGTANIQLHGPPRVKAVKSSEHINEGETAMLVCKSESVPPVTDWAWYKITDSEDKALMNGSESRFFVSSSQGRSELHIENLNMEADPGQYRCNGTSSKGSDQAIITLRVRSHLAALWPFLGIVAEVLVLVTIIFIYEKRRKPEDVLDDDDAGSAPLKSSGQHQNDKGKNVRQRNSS

[2] = target: T1, MCT13 (SLC16A13), untagged, co-expressed with CD147; test: as above; type: cell-based; settings: 1 mM cephradine, KCl buffer, 5 min, mock subtracted
[3] = target: T1, MCT13 (SLC16A13), untagged, co-expressed with CD147; test: as above; type: cell-based; settings: 1 mM cephradine, KCl buffer with 1% DMSO, 5 min, mock subtracted
[4] = substrate: CC1=C(C(=O)O)N2C(=O)[C@@H](NC(=O)[C@H](N)C3=CCC=CC3)[C@H]2SC1; test: uptake in transfected HEK293T cells, LC-MS/MS; type: cell-based, Homo sapiens

inhibition at 10000 µM [1]: 43%
Molecule: Cc1nnc(SCC2=C(C(=O)O)N3C(=O)[C@@H](NC(=O)Cn4cnnn4)[C@H]3SC2)s1 [Cephazolin]

Molecule: CCCN(CCC)S(=O)(=O)c1ccc(C(=O)O)cc1 [Probenecid]
% of control at 10 mM [2]: Probenecid and rifampicin, which are typical inhibitors of organic anion transporters

inhibition at 10000 µM [1]: 30%
Molecule: N[C@@H](CCC(=O)N[C@@H](CS)C(=O)NCC(=O)O)C(=O)O [glutathione]

Molecule: CO[C@H]1/C=C/O[C@@]2(C)Oc3c(C)c(O)c4c(O)c(c(/C=N/N5CCN(C)CC5)c(O)c4c3C2=O)NC(=O)/C(C)=C\C=C\[C@H](C)[C@H](O)[C@@H](C)[C@@H](O)[C@@H](C)[C@H](OC(C)=O)[C@@H]1C [rifampicin]
% of control at 50 uM [3]: Probenecid and rifampicin, which are typical inhibitors of organic anion transporters

B1: MCT13 (SLC16A13), untagged, co-expressed with CD147 (Homo sapiens) (protein)
chain: T1 sequence (Q7RTY0 1-426)
notes: untagged full-length MCT13, transiently co-transfected with CD147 in HEK293T cells; with Basigin
Km ([4]; KCl buffer, 0.1-30 mM cephradine, co-expressed CD147): 2.83 ± 0.63 mM

B2: EGFP-tagged MCT13 (with CD147) (Homo sapiens) (protein)
chain: T1 sequence (Q7RTY0 1-426)
notes: EGFP-tagged (pEGFP-C1) full-length MCT13, co-transfected with CD147 in HEK293T cells; with Basigin
Km ([4]; EGFP-tagged MCT13): 3.95 ± 0.53 mM
